Results taken from patent publication US7943660B2, “Inhibitors of the LFA-1/ICAM-1 interaction and uses thereof” (Dominion Pharmakine S.L., priority 2005, dated 2011).

Key:
[1] = test system: Human peripheral blood lymphocyte (PBL) adhesion to immobilized human recombinant ICAM-1; test: Human PBL adhesion assay to immobilized recombinant human ICAM-1; format: cell-based; conditions: PBLs 100 ng/ml PMA 30 min, then HC0303 20 μg/5×10^5 cells for 30 min; FIG. 7; P<0.01
Description: Ninety six-well plates were coated with 2 μg/ml recombinant human ICAM-1 (R&D Systems, Minneapolis, Minn.) at 4° C. overnight. Nonspecific binding sites on plastic were blocked by treating the wells with 100 μl of PBS containing 0.5% BSA for 2 h at room temperature. Isolated human PBLs were incubated with either basal medium or 100 ng/ml PMA for 30 min. Then, PBLs were BCECF-AM-labeled and after washing, the compound HC0303 (20 μg/5×10^5 cells) was added for 30 min.
For adhesion assay, PBLs (5×10^4 per well) were added to quadruplicate wells. Then, plates were incubated for 1 hour at 37° C. before unattached cells were removed by washing three times with fresh medium. The number of adhering cells was determined using the same quantitative fluorescence measurement system as above described.
That this anti-adhesive effect of compound HC0303 is due to LFA-1/ICAM-1 interaction blockade was further confirmed along a lymphocyte adhesion assay to immobilized ICAM-1 substrate. Cultured PBLs were incubated with either basal medium or 100 ng/ml PMA for 30 min. Then, PBLs were BCECF-AM-labeled and after washing, compound HC0303 (20 μg/5×10^5 cells) was added for 30 minutes prior to the adhesion assay to a ICAM-1-coated plate. […] The results are the mean ±SD of three separate experiments, each in sextuplicate (n=18). […]

Co26-CC cells = test: Viability of Co26-CC cells after in vitro pretreatment; format: cell-based, murine; conditions: in vitro cancer cell pretreatment with HC0303
[2] = test system: 51b murine colon carcinoma (51b-CC) cell adhesion to HSE cells; test: 51b colon carcinoma cell adhesion to HSE cells; format: cell-based; conditions: 51b cells, FIG. 6A
Description: (§1) Time-dependent adhesion assays was carried out on a quantitative basis according to previous validated bioassays (Vidal-Vanaclocha et al., Cancer Research, 1994, 54(10):2667-72). For tumor cell pre-labelling, they were allowed to accumulate the non-fluorescent sterase substrate BCECF-AM and to hydrolyze it to its fluorescent product BCECF which becomes trapped inside living cells. To do this, 50 μg of BCECF-AM were diluted in dry DMSO (5 μl) and DME medium until […] (40 μg/ml).
(§2) Tumor cells (5×10^6) were incubated in BCECF-AM solution at 37° C. for 30 min. After gently washing, tumor cells were resuspended in fresh medium (DMEM without phenol red) at a concentration of 2×10^6 cells/ml.
(§3) Twenty-four hours post-plating, primary cultured hepatic sinusoidal endothelial (HSE) cells were also used for adhesion assay. To determine the basal autofluorescence per well, plates were read on a fluorometric microplate reader (Multiskan Ascent, Thermo Labsystems) using 485/22 nm excitation and the 530/25 nm emission filter. Then, 2×10^5 labeled tumor cells were added to each well of HSE cells and to collagen pre-coated control wells.
(§4) However, in order to determine the exact number of cells in each well, co-culture plates were read for a second time. Then, plates were incubated at 37° C. […]

[3] = test system: Co26 murine colon carcinoma (Co26-CC) cell adhesion to HSE cells; test: Co26 colon carcinoma cell adhesion to HSE cells; format: cell-based; conditions: FIG. 6B
Description: as §1, §2, §3, §4

[4] = 100 ng/ml PMA 30 min, then HC0303 20 μg/5×10^5 cells for 30 min, P<0.01
[5] = HC0303 20 μg/5×10^5 cells for 30 min

Q: For `CC[C@H](C)C(OCc1ccccc1)[C@@H]1[C@H]([N+](=O)[O-])[C@H](c2ccccc2)N[C@]1(C)C(=O)NCCC(=O)O` (stereo partly drawn) [HC0303, 3-[(2S,3R,4S,5S)-3-[(2S)-1-(Benzyloxy)-2-methylbutyl]-2-methyl-4-nitro-5-phenylpyrrolidine-2-carboxamido]propanoic acid], which “PMA-induced adhesion of PBLs to immobilized human recombinant ICAM-1” value [1] is on record?
A: significantly decreased

Q: What about the “Cell viability of Co26-CC cells” value (Co26-CC cells) of the same compound?
A: without Affecting Cell Viability

Q: What about the “PMA-induced cancer cell adhesion to HSE cells” value [2, 4] of the same compound?
A: significantly decreased

Q: What about the “adhesion to untreated HSE cells (no PMA)” value [2, 5] of the same compound?
A: did not affect

Q: What about the “PMA-induced cancer cell adhesion to HSE cells” value [3, 4] of the same compound?
A: significantly decreased

Q: What about the “adhesion to untreated HSE cells (no PMA)” value [3, 5] of the same compound?
A: did not affect

Q: And the melting point?
A: 104 to 105 °C
